For 19 compounds, IC50 results are on record in patent publication US11306078B2, “Piperidine CXCR7 receptor modulators” (IDORSIA PHARMACEUTICALS LTD., priority 2016, dated 2022).

The assay concerns the target human chemokine receptor CXCR7 (Homo sapiens (Human), UniProt P25106). Briefly: Tango CXCR7-bla U2OS beta-arrestin recruitment assay (beta-lactamase reporter, FRET), antagonism of CXCL12/SDF1-α.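 Also: compounds preincubated 15 min before CXCL12 addition, then 22 h at 37 °C, FRET emission ratio read with CCF4-AM substrate after 2 h.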 Format: cell-based. The conditions noted are these: antagonistic effect on CXCR7; Tango CXCR7-bla U2OS cells, CXCL12/SDF1-α at its EC80.

human chemokine receptor CXCR7, sequence (P25106 whole entry): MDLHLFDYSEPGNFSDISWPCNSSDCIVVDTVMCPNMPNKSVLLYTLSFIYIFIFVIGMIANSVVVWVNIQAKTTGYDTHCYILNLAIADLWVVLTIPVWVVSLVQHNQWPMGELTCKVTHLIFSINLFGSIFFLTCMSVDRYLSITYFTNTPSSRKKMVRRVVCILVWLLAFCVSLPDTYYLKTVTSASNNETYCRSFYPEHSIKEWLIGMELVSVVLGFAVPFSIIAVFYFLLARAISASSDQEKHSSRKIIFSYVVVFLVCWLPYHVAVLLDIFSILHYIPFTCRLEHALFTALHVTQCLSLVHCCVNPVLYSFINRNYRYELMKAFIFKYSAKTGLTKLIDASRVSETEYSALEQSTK

Usually IC50 stands for the midpoint of a concentration-inhibition curve. A lower IC50 goes with higher potency. For the compound `C[C@@H](NC(=O)[C@H]1CN(C2CCCCC2)CC[C@@H]1NC(=O)c1noc(-c2ccc(F)cc2F)n1)c1ccccn1` (single isomer, unassigned) [Example 1.156a, (3S,4S)-1-Cyclohexyl-4-{[5-(2,4-difluoro-phenyl)-[1,2,4]oxadiazole-3-carbonyl]-amino}-piperidine-3-carboxylic acid ((R)-1-pyridin-2-yl-ethyl)-amide or (3R,4R)-1-Cyclohexyl-4-{[5-(2,4-difluoro-phenyl)-[1,2,4]oxadiazole-3-carbonyl]-amino}-piperidine-3-carboxylic acid ((R)-1-pyridin-2-yl-ethyl)-amide], the IC50 came out at 0.019 µM.
The figure for `O=C(N[C@@H]1CCN(C2CCCCC2)C[C@H]1C(=O)NC1(c2ccccn2)CC1)c1cn(-c2ccc(F)cc2F)nn1` (single isomer, unassigned) [Example 1.165a, (3R*,4R*)-1-Cyclohexyl-4-{[1-(2,4-difluoro-phenyl)-1H-[1,2,3]triazole-4-carbonyl]-amino}-piperidine-3-carboxylic acid (1-pyridin-2-yl-cyclopropyl)-amide] is 0.043 µM; for `O=C(N[C@@H]1CCN(C2CCCCC2)C[C@H]1C(=O)NC1(c2ccccn2)CC1)c1cn(-c2ccc(F)cc2F)nn1` (single isomer, unassigned) [Example 1.165b, (3R*,4R*)-1-Cyclohexyl-4-{[1-(2,4-difluoro-phenyl)-1H-[1,2,3]triazole-4-carbonyl]-amino}-piperidine-3-carboxylic acid (1-pyridin-2-yl-cyclopropyl)-amide] it is 0.537 µM; for `O=C(N[C@H]1CCN(C2CCCC2)C[C@@H]1C(=O)NC1(c2ccccn2)CC1)c1cc(-c2c(F)cc(F)cc2F)on1` (single isomer, unassigned) [Example 1.170a, (3S,4S)-1-Cyclopentyl-4-{[5-(2,4,6-trifluoro-phenyl)-isoxazole-3-carbonyl]-amino}-piperidine-3-carboxylic acid (1-pyridin-2-yl-cyclopropyl)-amide or (3R,4R)-1-Cyclopentyl-4-{[5-(2,4,6-trifluoro-phenyl)-isoxazole-3-carbonyl]-amino}-piperidine-3-carboxylic acid (1-pyridin-2-yl-cyclopropyl)-amide] it is 0.033 µM.
The figure for `O=C(N[C@@H]1CCN(CC2CC2)C[C@H]1C(=O)NC1(c2ccccn2)CC1)c1cc(-c2c(F)cc(F)cc2F)on1` (single isomer, unassigned) [Example 1.171a, (3R*,4R*)-1-Cyclopropylmethyl-4-{[5-(2,4,6-trifluoro-phenyl)-isoxazole-3-carbonyl]-amino}-piperidine-3-carboxylic acid (1-pyridin-2-yl-cyclopropyl)-amide] is 0.007 µM.
For the compound `O=C(N[C@@H]1CCN(CC2CC2)C[C@H]1C(=O)NC1(c2ccccn2)CC1)c1cc(-c2c(F)cc(F)cc2F)on1` (single isomer, unassigned) [Example 1.171b, (3R*,4R*)-1-Cyclopropylmethyl-4-{[5-(2,4,6-trifluoro-phenyl)-isoxazole-3-carbonyl]-amino}-piperidine-3-carboxylic acid (1-pyridin-2-yl-cyclopropyl)-amide], the IC50 turned out to be 0.446 µM.
The figure for `O=C(N[C@H]1CCN(C2CCCC2)C[C@@H]1C(=O)NC1(c2ncccn2)CC1)c1cc(-c2c(F)cc(F)cc2F)on1` (single isomer, unassigned) [Example 1.176a, (3S,4S)-1-Cyclopentyl-4-{[5-(2,4,6-trifluoro-phenyl)-isoxazole-3-carbonyl]-amino}-piperidine-3-carboxylic acid (1-pyrimidin-2-yl-cyclopropyl)-amide or (3R,4R)-1-Cyclopentyl-4-{[5-(2,4,6-trifluoro-phenyl)-isoxazole-3-carbonyl]-amino}-piperidine-3-carboxylic acid (1-pyrimidin-2-yl-cyclopropyl)-amide] is 0.005 µM; for `Cc1cccc([C@H](C)NC(=O)[C@@H]2CN(C3CCCCC3)CC[C@H]2NC(=O)c2cc(-c3ccc(F)cc3F)on2)n1` (single isomer, unassigned) [Example 1.188.d, (3R*,4R*)-1-Cyclohexyl-4-{[5-(2,4-difluoro-phenyl)-isoxazole-3-carbonyl]-amino}-piperidine-3-carboxylic acid [(S)-1-(6-methyl-pyridin-2-yl)-ethyl]-amide] it is 0.362 µM.
The figure for `Cc1cccc([C@@H](C)NC(=O)[C@@H]2CN(C3CCCCC3)CC[C@H]2NC(=O)c2cc(-c3ccc(F)cc3F)on2)n1` (single isomer, unassigned) [Example 1.188a, (3R*,4R*)-1-Cyclohexyl-4-{[5-(2,4-difluoro-phenyl)-isoxazole-3-carbonyl]-amino}-piperidine-3-carboxylic acid [(R)-1-(6-methyl-pyridin-2-yl)-ethyl]-amide] is 0.003 µM.
The figure for `Cc1cccc([C@@H](C)NC(=O)[C@@H]2CN(C3CCCCC3)CC[C@H]2NC(=O)c2cc(-c3ccc(F)cc3F)on2)n1` (single isomer, unassigned) [Example 1.188b, (3R*,4R*)-1-Cyclohexyl-4-{[5-(2,4-difluoro-phenyl)-isoxazole-3-carbonyl]-amino}-piperidine-3-carboxylic acid [(R)-1-(6-methyl-pyridin-2-yl)-ethyl]-amide] is 0.519 µM; for `Cc1cccc([C@H](C)NC(=O)[C@@H]2CN(C3CCCCC3)CC[C@H]2NC(=O)c2cc(-c3ccc(F)cc3F)on2)n1` (single isomer, unassigned) [Example 1.188c, (3R*,4R*)-1-Cyclohexyl-4-{[5-(2,4-difluoro-phenyl)-isoxazole-3-carbonyl]-amino}-piperidine-3-carboxylic acid [(S)-1-(6-methyl-pyridin-2-yl)-ethyl]-amide] it is 0.179 µM; for `O=C(N[C@H]1CCN(CC2CC2)C[C@@H]1C(=O)NC1(c2ncccn2)CC1)c1cc(-c2ccc(Cl)cc2Cl)on1` (single isomer, unassigned) [Example 1.189a, (3S,4S)-1-Cyclopropylmethyl-4-{[5-(2,4-dichloro-phenyl)-isoxazole-3-carbonyl]-amino}-piperidine-3-carboxylic acid (1-pyrimidin-2-yl-cyclopropyl)-amide or (3R,4R)-1-Cyclopropylmethyl-4-{[5-(2,4-dichloro-phenyl)-isoxazole-3-carbonyl]-amino}-piperidine-3-carboxylic acid (1-pyrimidin-2-yl-cyclopropyl)-amide] it is 0.015 µM.
Regarding `O=C(N[C@@H]1CCN(CC2CC2)C[C@H]1C(=O)NC1(c2ncccn2)CC1)c1cc(-c2ccc(C(F)(F)F)cc2)on1` (single isomer, unassigned) [Example 1.192a, (3R*,4R*)-1-Cyclopropylmethyl-4-{[5-(4-trifluoromethyl-phenyl)-isoxazole-3-carbonyl]-amino}-piperidine-3-carboxylic acid (1-pyrimidin-2-yl-cyclopropyl)-amide], the midpoint of inhibition, the IC50, lay at 0.854 µM.
Under `O=C(N[C@@H]1CCN(CC2CC2)C[C@H]1C(=O)NC1(c2ncccn2)CC1)c1cc(-c2ccc(C(F)(F)F)cc2)on1` (single isomer, unassigned) [Example 1.192b, (3R*,4R*)-1-Cyclopropylmethyl-4-{[5-(4-trifluoromethyl-phenyl)-isoxazole-3-carbonyl]-amino}-piperidine-3-carboxylic acid (1-pyrimidin-2-yl-cyclopropyl)-amide] stands 0.122 µM; under `O=C(N[C@@H]1CCN(CC2CC2)C[C@H]1C(=O)NC1(c2ncccn2)CC1)c1cc(-c2cccc(C(F)(F)F)c2)on1` (single isomer, unassigned) [Example 1.193a, (3R,4R)-1-Cyclopropylmethyl-4-{[5-(3-trifluoromethyl-phenyl)-isoxazole-3-carbonyl]-amino}-piperidine-3-carboxylic acid (1-pyrimidin-2-yl-cyclopropyl)-amide or (3S,4S)-1-cyclopropylmethyl-4-{[5-(3-trifluoromethyl-phenyl)-isoxazole-3-carbonyl]-amino}-piperidine-3-carboxylic acid (1-pyrimidin-2-yl-cyclopropyl)-amide], 0.097 µM; under `O=C(N[C@@H]1CCN(CC2CC2)C[C@H]1C(=O)NC1(c2ncccn2)CC1)c1cc(-c2ccc(F)c(F)c2F)on1` (single isomer, unassigned) [Example 1.194a, (3R,4R)-1-Cyclopropylmethyl-4-{[5-(2,3,4-trifluoro-phenyl)-isoxazole-3-carbonyl]-amino}-piperidine-3-carboxylic acid (1-pyrimidin-2-yl-cyclopropyl)-amide or (3S,4S)-1-cyclopropylmethyl-4-{[5-(2,3,4-trifluoro-phenyl)-isoxazole-3-carbonyl]-amino}-piperidine-3-carboxylic acid (1-pyrimidin-2-yl-cyclopropyl)-amide], 0.013 µM.
As for `CN(C)C(=O)[C@@H]1CN(C2CCCCC2)CC[C@H]1NC(=O)c1nnc(-c2ccc(F)cc2F)o1` (single isomer, unassigned) [Example 3.003a, (3R*,4R*)-1-Cyclohexyl-4-{[5-(2,4-difluoro-phenyl)-[1,3,4]oxadiazole-2-carbonyl]-amino}-piperidine-3-carboxylic acid dimethylamide], half-maximal inhibition (IC50) required 0.771 µM.
The figure for `CN(C)C(=O)[C@@H]1CN(C2CCCCC2)CC[C@H]1NC(=O)c1nnc(-c2ccc(F)cc2F)o1` (single isomer, unassigned) [Example 3.003b, (3R*,4R*)-1-Cyclohexyl-4-{[5-(2,4-difluoro-phenyl)-[1,3,4]oxadiazole-2-carbonyl]-amino}-piperidine-3-carboxylic acid dimethylamide] is 0.054 µM.
Under `O=C(N[C@H]1CCN(CC2CC2)C[C@@H]1C(=O)NC1(c2ccccn2)CC1)c1nnc(-c2ccc(F)cc2F)o1` (single isomer, unassigned) [Example 3.016a, (3S,4S)-1-Cyclopropylmethyl-4-{[5-(2,4-difluoro-phenyl)-[1,3,4]oxadiazole-2-carbonyl]-amino}-piperidine-3-carboxylic acid (1-pyridin-2-yl-cyclopropyl)-amide or (3R,4R)-1-Cyclopropylmethyl-4-{[5-(2,4-difluoro-phenyl)-[1,3,4]oxadiazole-2-carbonyl]-amino}-piperidine-3-carboxylic acid (1-pyridin-2-yl-cyclopropyl)-amide] stands 0.09 µM.
